pIC50: −log10 of the molar value. Where a name gives a salt, the structure may show the parent alone.

As a reminder, the pIC50 is the IC50 on a negative log10 scale, so that one unit is a factor of ten.

One assay deals with human IL-1β. Description: In vitro cytokines production test (LPS-stimulated human PBMC, IL-1β ELISA). Conditions: 10 ng/ml LPS, 60 min pretreatment, 20 hours culture, read-out: IC50 (inhibition of IL-1β production). In kind it is cell-based. As for the experimental part: 1. In vitro cytokines production test
The compounds of the invention were tested by in particular on the production of human IL-1β. Mononuclear cells (PBMC) were prepared from peripheral blood ("buffy coat") from healthy donors, by centrifugation over density gradient Ficoll-Hypaque (Biochrom KG, Berlin, Germany). The cells (2,5×10^6 for ml) were cultured at 37° C. under humid atmosphere containing 5% CO2 in 96-wells plates (Nunc) at a final volume of 200 μl. […] The production of cytokines was induced by stimulating the cells with 10 ng/ ml of LPS (lipopolysaccharide) from E. coli serotype 055:B5 (Sigma Chemical Co., St. Louis. Mo.). The cells were pretreated with the compounds of the intention dissolved in DMSO (final concentration: 0.05% […]) for 60 minutes. The compounds and LPS were present during the whole 20 hours of culture. As the negative control, not-stimulated cells were used. At the end of the test, supernatants were collected and the IL-1β production was tested by a specific ELISA assay ("sandwich-type antigen capture", R & D System, Minneapolis, Minn.; all of the tests were carried out in duplicate). A goat polyclonal serum specific for human IL-1β was used, purified by affinity, to cover the 96-wells microtitration plates (Nunc). After washing, the wells were incubated for 2 hours with 3% of boyine serum albumine (BSA) in buffered saline. Recombinant human IL-1β was used to obtain a standard curve for each test and the supernatant samples were diluted to 1/20 and 1/80 with PBS+0.1% of BSA. The plates were then incubated at 4° C. overnight. After washing, the secondary antibody was added, i.e. an anti- human lL-1β murine monoclonal antibody. After incubation and washing, a goat anti-murine Ig-G polyclonal antibody peroxidase-conjugated (Zymed) was added, then the chromogenic substrate tetramethylbenzidine dichloride (Sigma). The reaction was stopped with 4N H2 SO4 and the absorbance at 450 nm was measured with an automatic spectrophotometer (Perkin-Elmer).
In general terms: In an ELISA, binding on a coated surface is turned into a signal by an enzyme label.
`O=C(Nc1ccc(C(=O)NO)cc1)OCc1cccc2ccccc12` [Example 4]: the pIC50 is 7.55.

Turning to `CCN(CC)Cc1ccc(COC(=O)Nc2ccc(C(=O)NO)cc2)c2ccccc12` [Example 15, hydrochloride], the pIC50 was 7.85.

Take `CCCCN(CCCC)Cc1ccc2cc(COC(=O)Nc3ccc(C(=O)NO)cc3)ccc2c1` [Example 14, hydrochloride]: the pIC50 was 6.42.

With `O=C(Nc1ccc(C(=O)NO)cc1)OCC1CCc2ccccc2C1` (stereo not shown) [Example 5], the pIC50 is 6.86.

Take `O=C(Nc1ccc(C(=O)NO)cc1)OCCC(c1ccccc1)c1ccccc1` [Example 10]: the pIC50 was 7.00.

`O=C(Nc1ccc(C(=O)NO)cc1)OCCCc1ccccc1` [Example 6]: the pIC50 is 7.37.

Regarding `CC(C)N1Cc2ccccc2CC1COC(=O)NCc1ccc(C(=O)NO)cc1` (stereo not shown) [Example 17, 4-[N-isopropyl-1,2,3,4-tetrahydroisoquinol-3-yl)methyloxycarbamoylmethyl]benzohydroxamic acid hydrochloride], the pIC50 was 7.68.

As to `O=C(Nc1ccc(C(=O)NO)cc1)OC/C=C/c1ccccc1` [Example 8], the pIC50 was 7.54.

For the compound `O=C(CCCCc1ccccc1)Nc1ccc(C(=O)NO)cc1` [Example 1, 4-(5-Phenylpentanamido)benzohydroxamic acid], the pIC50 was 6.52.

Take `O=C(NCc1ccc(C(=O)NO)cc1)OCC(c1ccccc1)c1ccccc1` [Example 2, 4-[2,2-(Diphenyl)ethoxycarbamoylmethyl]benzohydroxamic acid]: the pIC50 was 6.79.

On to `CCN(CC)Cc1ccc2cc(COC(=O)Nc3ccc(C(=O)NO)cc3)ccc2c1` [Example 12, hydrochloride], for which the pIC50 was 7.02.

`O=C(Nc1ccc(C(=O)NO)cc1)OC/C=C\c1ccccc1` [Example 9]: the negative logarithm of the IC50 (pIC50) was 7.14.

Turning to `O=C(Nc1ccc(C(=O)NO)cc1)OCc1ccc2ccccc2c1` [Example 7], the pIC50 is 7.92.

Consider `CCCN(CCC)Cc1ccc2cc(COC(=O)Nc3ccc(C(=O)NO)cc3)ccc2c1` [Example 13, hydrochloride], for which the pIC50 is 6.78.

In the case of `O=C(Nc1ccc(C(=O)NO)cc1)OCCC12CC3CC(CC(C3)C1)C2` [Example 3], the pIC50 was 6.27.

On to `CCN(CC)Cc1ccc2cc(CNC(=O)Nc3ccc(C(=O)NO)cc3)ccc2c1` [Example 16, hydrochloride], for which the pIC50 was 8.00.

Another assay concerns serum TNFα. Description: In vivo LPS-induced TNFα production (serum TNFα, ELISA). Also noted: species or system Male BALB/c mice. As to conditions: 5.0 ng/kg (so in the source), orally 90 min before LPS (7.5 mg/kg i.p.), serum 2 h after LPS. The method, then:
2. In vivo LPS-induced TNFα production Male BALB/c mice (18-20 g) were obtained from Harlan-Nossan (Correzzana, Italy); Lipopolysaccharide (LPS) from S. enteritidis (code L-6011) was from Sigma (St. Louis, Mo.); Dexamethasone (Soldesam) from Laboratorio Farmacologico Milanese (Caronno P., Italy).
Mice were treated i.p. with LPS (S. enteritidis, 7.5 mg/kg). Dexamethasone was administered i.p. 30 min. before LPS. Compounds were administered orally 90 min. before LPS. Two hours after LPS administration the anaesthetized animals were sacrificed, blood was collected by cardiac puncture and allowed to coagulate. Serum TNFα was measured by ELISA with "mouse Reagent Sets" (Genzyme, Cambridge, Mass.) according to the manufacturer's instructions and using mouse recombinant TNFα as standard.
Take `CCN(CC)Cc1ccc2cc(COC(=O)Nc3ccc(C(=O)NO)cc3)ccc2c1` [Example 12, hydrochloride]: the “Inhibition (%)” value is 64.3% and the TNFα was 407 pg/mL.

Staying with this assay, now noted: 0.5 mg/kg, orally 90 min before LPS (7.5 mg/kg i.p.), serum 2 h after LPS.
On to `CCN(CC)Cc1ccc2cc(COC(=O)Nc3ccc(C(=O)NO)cc3)ccc2c1` [Example 12, hydrochloride], for which the “Inhibition (%)” value came to 55.0% and the TNFα is 514 pg/mL.

Still in this assay, the particulars now being: 30 mg/kg, i.p. 30 min before LPS (7.5 mg/kg i.p.), serum 2 h after LPS.
Turning to `C[C@@H]1C[C@H]2[C@@H]3CCC4=CC(=O)C=C[C@]4(C)[C@@]3(F)[C@@H](O)C[C@]2(C)[C@@]1(O)C(=O)CO` [Dexamethasone, reference compound], the “Inhibition (%)” value is on record as 90.2% and the TNFα is 112 pg/mL.

(Values after patent US6034096A, “Compounds with anti-inflammatory and immunosuppressive activities” (Italfarmaco S.p.A., priority 1996, dated 2000).)
